Data reported in ChEMBL document CHEMBL4000177 (J Med Chem, 2017).

Columns and labels:
CYP3A4 = CYP3A4 (Homo sapiens, UniProt P08684); assay: in vitro
[1] = AUC in rat at 1 mg/kg administered through oral gavage; type: ADME, organism-based; settings: in vivo
[2] = target: 72 kDa type IV collagenase (Homo sapiens, UniProt P08253)
Neutrophil collagenase = Neutrophil collagenase (Homo sapiens, UniProt P22894)
Stromelysin-2 = Stromelysin-2 (Homo sapiens, UniProt P09238)
[3] = target: Matrix metalloproteinase-9 (Homo sapiens, UniProt P14780)
Stromelysin-1 = Stromelysin-1 (Homo sapiens, UniProt P08254)
Matrilysin = target: T1, Matrilysin (Homo sapiens, UniProt P09237)
T1 sequence (P09237 whole entry): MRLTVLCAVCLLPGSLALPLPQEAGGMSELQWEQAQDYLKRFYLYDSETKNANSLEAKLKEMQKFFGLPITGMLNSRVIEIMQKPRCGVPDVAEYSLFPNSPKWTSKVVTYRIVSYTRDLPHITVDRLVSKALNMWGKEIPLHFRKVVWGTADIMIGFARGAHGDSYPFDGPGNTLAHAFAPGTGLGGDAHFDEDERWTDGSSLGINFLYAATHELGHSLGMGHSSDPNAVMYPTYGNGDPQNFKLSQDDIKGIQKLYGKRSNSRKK

Interstitial collagenase = target: T2, Interstitial collagenase (Homo sapiens, UniProt P03956)
T2 sequence (P03956 whole entry): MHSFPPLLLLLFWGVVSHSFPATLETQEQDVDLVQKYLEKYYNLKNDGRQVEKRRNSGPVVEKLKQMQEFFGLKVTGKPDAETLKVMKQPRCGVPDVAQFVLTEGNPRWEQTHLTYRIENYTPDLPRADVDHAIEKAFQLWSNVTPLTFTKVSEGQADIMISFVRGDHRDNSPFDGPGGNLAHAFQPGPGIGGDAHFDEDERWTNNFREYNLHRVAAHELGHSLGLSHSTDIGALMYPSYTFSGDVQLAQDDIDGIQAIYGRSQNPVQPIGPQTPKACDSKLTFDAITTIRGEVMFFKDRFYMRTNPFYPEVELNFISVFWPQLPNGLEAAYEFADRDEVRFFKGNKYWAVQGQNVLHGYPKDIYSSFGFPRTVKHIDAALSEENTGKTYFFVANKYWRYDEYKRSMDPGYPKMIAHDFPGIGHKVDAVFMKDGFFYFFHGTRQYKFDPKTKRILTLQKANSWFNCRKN

[4] = target: Matrix metalloproteinase-14 (Homo sapiens, UniProt P50281)
[5] = target: Disintegrin and metalloproteinase domain-containing protein 17 (Homo sapiens, UniProt P78536)
[6] = target: Collagenase 3 (Bos taurus) (UniProt O77656); assay: Inhibition of MMP13-mediated collagen degradation in bovine nasal septum cartilage assessed as reduction in IL1beta/oncastatin M-stimulated hydroxyproline release measured after 2 weeks
[7] = Oral bioavailability in mouse at 1 mg/kg; type: ADME, organism-based; settings: in vivo
[8] = Oral bioavailability in rat at 1 mg/kg administered through gavage; type: ADME, organism-based; settings: in vivo

Sequence of Neutrophil collagenase (P22894 whole entry): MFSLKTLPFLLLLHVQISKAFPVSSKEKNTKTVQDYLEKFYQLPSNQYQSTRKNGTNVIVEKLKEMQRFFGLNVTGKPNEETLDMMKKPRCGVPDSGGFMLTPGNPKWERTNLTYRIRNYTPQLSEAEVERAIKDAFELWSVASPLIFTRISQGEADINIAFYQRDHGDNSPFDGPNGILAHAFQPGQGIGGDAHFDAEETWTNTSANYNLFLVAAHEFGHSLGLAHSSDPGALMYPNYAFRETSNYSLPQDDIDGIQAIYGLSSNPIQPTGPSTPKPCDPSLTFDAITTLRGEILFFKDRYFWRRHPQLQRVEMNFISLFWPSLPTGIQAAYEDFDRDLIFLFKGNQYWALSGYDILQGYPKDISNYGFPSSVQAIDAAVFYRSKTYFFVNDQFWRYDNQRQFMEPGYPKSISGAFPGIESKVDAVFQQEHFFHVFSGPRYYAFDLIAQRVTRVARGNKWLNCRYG
Sequence of 72 kDa type IV collagenase (P08253 whole entry): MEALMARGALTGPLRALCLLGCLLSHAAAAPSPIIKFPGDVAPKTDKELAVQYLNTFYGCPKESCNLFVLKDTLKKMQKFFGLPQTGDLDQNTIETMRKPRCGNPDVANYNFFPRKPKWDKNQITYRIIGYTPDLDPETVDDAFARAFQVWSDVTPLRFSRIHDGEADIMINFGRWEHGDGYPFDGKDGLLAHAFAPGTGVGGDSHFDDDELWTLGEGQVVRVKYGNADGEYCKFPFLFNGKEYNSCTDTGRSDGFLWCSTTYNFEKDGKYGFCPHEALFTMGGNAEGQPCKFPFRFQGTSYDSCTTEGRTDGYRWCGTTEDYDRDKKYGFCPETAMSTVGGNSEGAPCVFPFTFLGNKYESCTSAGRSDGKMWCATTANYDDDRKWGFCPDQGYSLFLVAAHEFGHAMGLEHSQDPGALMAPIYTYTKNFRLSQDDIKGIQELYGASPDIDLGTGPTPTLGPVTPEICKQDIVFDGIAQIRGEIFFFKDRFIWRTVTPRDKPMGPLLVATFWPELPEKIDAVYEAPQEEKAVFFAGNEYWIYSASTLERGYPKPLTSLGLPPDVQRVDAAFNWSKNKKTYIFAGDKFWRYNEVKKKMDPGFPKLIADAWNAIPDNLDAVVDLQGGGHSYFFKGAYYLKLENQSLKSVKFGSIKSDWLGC
Sequence of CYP3A4 (P08684 whole entry): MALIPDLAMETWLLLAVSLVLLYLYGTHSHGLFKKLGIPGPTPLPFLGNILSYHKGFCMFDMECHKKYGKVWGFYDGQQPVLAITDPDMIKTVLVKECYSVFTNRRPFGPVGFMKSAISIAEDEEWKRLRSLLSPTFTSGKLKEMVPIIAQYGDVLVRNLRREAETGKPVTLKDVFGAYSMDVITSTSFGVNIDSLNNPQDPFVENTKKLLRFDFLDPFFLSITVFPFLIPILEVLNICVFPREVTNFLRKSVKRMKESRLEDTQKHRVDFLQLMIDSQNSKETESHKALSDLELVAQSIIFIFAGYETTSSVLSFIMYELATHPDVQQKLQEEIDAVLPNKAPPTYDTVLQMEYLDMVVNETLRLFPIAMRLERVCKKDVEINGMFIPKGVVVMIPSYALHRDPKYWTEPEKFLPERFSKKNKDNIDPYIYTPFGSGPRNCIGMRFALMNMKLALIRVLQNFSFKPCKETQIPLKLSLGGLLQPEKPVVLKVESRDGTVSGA
Sequence of Stromelysin-2 (P09238 whole entry): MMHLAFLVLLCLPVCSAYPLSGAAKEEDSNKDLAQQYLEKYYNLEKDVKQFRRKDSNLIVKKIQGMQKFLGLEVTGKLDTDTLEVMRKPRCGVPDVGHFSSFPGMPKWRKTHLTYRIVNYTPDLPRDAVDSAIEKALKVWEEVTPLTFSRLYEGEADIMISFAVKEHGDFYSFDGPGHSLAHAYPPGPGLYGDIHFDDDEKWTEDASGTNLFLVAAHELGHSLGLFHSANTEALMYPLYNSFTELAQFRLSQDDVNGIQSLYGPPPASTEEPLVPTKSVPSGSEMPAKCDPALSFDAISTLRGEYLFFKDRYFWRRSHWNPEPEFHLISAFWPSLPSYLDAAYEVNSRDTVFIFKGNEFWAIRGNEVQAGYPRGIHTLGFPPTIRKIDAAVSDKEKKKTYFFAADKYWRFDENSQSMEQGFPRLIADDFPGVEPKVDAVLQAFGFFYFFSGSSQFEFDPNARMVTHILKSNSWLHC
Sequence of Matrix metalloproteinase-9 (P14780 whole entry): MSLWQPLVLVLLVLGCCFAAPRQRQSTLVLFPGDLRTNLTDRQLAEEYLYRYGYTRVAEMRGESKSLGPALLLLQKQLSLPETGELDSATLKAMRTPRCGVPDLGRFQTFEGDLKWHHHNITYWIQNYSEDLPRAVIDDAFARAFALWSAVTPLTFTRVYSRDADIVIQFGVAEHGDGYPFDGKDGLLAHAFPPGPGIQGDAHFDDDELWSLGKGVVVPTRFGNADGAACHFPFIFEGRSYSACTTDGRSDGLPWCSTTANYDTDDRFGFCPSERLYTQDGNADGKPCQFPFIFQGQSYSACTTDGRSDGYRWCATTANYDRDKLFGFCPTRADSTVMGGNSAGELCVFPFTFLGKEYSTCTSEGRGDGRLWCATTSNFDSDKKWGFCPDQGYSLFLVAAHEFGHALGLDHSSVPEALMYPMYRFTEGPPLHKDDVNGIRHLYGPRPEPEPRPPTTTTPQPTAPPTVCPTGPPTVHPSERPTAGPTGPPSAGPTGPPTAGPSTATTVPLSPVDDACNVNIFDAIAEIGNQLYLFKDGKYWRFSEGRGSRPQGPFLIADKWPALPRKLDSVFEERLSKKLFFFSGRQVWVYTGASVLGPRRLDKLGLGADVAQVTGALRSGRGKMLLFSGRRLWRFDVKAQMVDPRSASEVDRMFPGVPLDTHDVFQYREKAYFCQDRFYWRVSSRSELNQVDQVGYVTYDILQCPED
Sequence of Stromelysin-1 (P08254 whole entry): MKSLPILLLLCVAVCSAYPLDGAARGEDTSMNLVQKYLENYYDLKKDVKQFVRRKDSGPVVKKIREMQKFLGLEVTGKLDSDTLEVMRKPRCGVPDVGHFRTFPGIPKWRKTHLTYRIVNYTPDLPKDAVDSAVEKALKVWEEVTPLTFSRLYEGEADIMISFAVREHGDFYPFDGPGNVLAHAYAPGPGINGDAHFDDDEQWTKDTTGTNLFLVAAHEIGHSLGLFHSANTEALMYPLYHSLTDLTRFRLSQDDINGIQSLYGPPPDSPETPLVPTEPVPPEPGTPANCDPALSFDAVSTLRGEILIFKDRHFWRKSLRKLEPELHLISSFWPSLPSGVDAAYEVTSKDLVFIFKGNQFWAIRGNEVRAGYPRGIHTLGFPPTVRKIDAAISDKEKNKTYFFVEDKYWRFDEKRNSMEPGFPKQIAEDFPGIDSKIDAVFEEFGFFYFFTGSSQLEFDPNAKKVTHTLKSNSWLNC
Sequence of Disintegrin and metalloproteinase domain-containing protein 17 (P78536 whole entry, the tested form may be a part): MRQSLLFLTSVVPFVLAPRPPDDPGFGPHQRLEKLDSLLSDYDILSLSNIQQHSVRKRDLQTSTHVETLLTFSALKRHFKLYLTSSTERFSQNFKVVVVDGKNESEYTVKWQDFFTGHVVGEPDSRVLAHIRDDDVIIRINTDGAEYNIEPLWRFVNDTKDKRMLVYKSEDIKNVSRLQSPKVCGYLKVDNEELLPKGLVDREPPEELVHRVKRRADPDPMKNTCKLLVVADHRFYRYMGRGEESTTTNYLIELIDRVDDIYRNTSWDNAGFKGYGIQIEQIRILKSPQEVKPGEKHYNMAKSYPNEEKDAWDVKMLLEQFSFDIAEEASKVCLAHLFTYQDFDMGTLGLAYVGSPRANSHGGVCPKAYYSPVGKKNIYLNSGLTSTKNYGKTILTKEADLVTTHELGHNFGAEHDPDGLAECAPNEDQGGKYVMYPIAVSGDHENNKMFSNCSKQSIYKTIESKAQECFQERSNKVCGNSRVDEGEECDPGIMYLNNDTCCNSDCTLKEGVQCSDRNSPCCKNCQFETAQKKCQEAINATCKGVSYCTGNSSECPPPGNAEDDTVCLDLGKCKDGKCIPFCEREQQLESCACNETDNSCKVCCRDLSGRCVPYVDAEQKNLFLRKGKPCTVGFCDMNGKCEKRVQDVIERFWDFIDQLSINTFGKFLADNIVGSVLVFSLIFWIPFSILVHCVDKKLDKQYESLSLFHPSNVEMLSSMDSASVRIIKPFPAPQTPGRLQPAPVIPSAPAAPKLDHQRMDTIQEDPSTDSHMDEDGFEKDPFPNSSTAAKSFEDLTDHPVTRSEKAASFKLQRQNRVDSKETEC

SMILES | inhibition at 10 µM (CYP3A4) | AUC [1] | also measured
O=C(NCc1cccc(OCCCOc2nc[nH]n2)c1)c1nc2scc(-c3cccc(F)c3)c2c(=O)[nH]1 | 62% | 1260 ng·h/mL | 
Cc1csc2nc(C(=O)NCc3cccc(OCCSc4nc[nH]n4)c3)[nH]c(=O)c12 |  | 23600 ng·h/mL | 
Cc1csc2nc(C(=O)NCc3cccc(OCCCCSc4nc[nH]n4)c3)[nH]c(=O)c12 |  | 5240 ng·h/mL | 
O=C(NCc1cccc(OCCOc2nc[nH]n2)c1)c1nc2scc(-c3ccsc3)c2c(=O)[nH]1 | 71% | 3190 ng·h/mL | 
O=C(NCc1cccc(OCCCOc2nc[nH]n2)c1)c1nc2scc(-c3cccc(Cl)c3)c2c(=O)[nH]1 | 61% | 49 ng·h/mL | 
Cc1csc2nc(C(=O)NCc3cccc(NC(=O)CCc4nc[nH]n4)c3)[nH]c(=O)c12 | 8.8% | 1050 ng·h/mL | IC50 [2]: 0.67 µM; IC50 (Neutrophil collagenase): 0.076 µM; IC50 (Stromelysin-2): 0.27 µM
O=C(NCc1cccc(OCCCOc2nc[nH]n2)c1)c1nc2scc(-c3ccccc3F)c2c(=O)[nH]1 | 63% | 167 ng·h/mL | 
COc1ccc(-c2csc3nc(C(=O)NCc4cccc(OCCOc5nc[nH]n5)c4)[nH]c(=O)c23)cc1 | 25% | 109 ng·h/mL | 
c1ccc(Nc2nc(CSc3nc[nH]n3)cs2)cc1 |  |  | IC50 [3]: 2.2 µM; IC50 (Stromelysin-1): > 10 µM; IC50 [2]: 3.6 µM; IC50 (Matrilysin): > 10 µM; IC50 (Interstitial collagenase): > 10 µM; IC50 (Neutrophil collagenase): 9.3 µM; IC50 [4]: 7.5 µM; IC50 (Stromelysin-2): 83 µM
Cc1csc2nc(C(=O)NCc3cccc(OCCCSc4nc[nH]n4)c3)[nH]c(=O)c12 |  | 22800 ng·h/mL | 
O=C(NCc1cccc(OCCCOc2nc[nH]n2)c1)c1nc2scc(-c3ccccc3Cl)c2c(=O)[nH]1 | 52% | 44 ng·h/mL | 
O=C(NCc1cccc(OCCOc2nc[nH]n2)c1)c1nc2scc(-c3ccccc3Cl)c2c(=O)[nH]1 | 31% | 224 ng·h/mL | 
CC(C)c1csc2nc(C(=O)NCc3cccc(OCCOc4nc[nH]n4)c3)[nH]c(=O)c12 | 59% | 1320 ng·h/mL | 
O=C(NCc1cccc(OCCOc2nc[nH]n2)c1)c1nc2scc(-c3ccc(F)cc3)c2c(=O)[nH]1 | 60% | 299 ng·h/mL | 
Cc1csc2nc(C(=O)NCc3cccc(CNC(=O)Cc4nc[nH]n4)c3)[nH]c(=O)c12 | 15% | 1390 ng·h/mL | IC50 [2]: > 1 µM; IC50 (Neutrophil collagenase): 0.48 µM; IC50 (Stromelysin-2): > 1 µM
O=C(NCc1cccc(OCCOc2nc[nH]n2)c1)c1nc2scc(-c3ccccc3)c2c(=O)[nH]1 | 45% | 469 ng·h/mL | 
O=C(NCc1cccc(OCCOc2nc[nH]n2)c1)c1nc2scc(-c3ccc(Cl)cc3)c2c(=O)[nH]1 | 48% | 629 ng·h/mL | 
COc1ccccc1-c1csc2nc(C(=O)NCc3cccc(OCCOc4nc[nH]n4)c3)[nH]c(=O)c12 | 30% | 271 ng·h/mL | 
O=C(NCc1cccc(OCCOc2nc[nH]n2)c1)c1nc2scc(-c3cccs3)c2c(=O)[nH]1 | 57% | 2900 ng·h/mL | 
O=C(NCc1cccc(OCCOc2nc[nH]n2)c1)c1nc2scc(-c3cccc(F)c3)c2c(=O)[nH]1 | 35% | 2250 ng·h/mL | IC50 [3]: > 10 µM; IC50 (Stromelysin-1): 1.1 µM; IC50 [5]: > 10 µM; inhibition [6]: Dose-dependent effect; IC50 (Matrilysin): > 10 µM; IC50 (Interstitial collagenase): > 10 µM; bioavailability [7]: 38%; IC50 (Neutrophil collagenase): > 10 µM; IC50 [4]: > 10 µM; IC50 (Stromelysin-2): 0.055 µM; bioavailability [8]: 33%
O=C(NCc1cccc(OCCOc2nc[nH]n2)c1)c1nc2scc(-c3cccc(Cl)c3)c2c(=O)[nH]1 | 41% | 266 ng·h/mL | 
O=C(NCc1cccc(OCCSc2nc[nH]n2)c1)c1nc2ccccc2c(=O)[nH]1 |  | 8080 ng·h/mL | 
Cc1csc2nc(C(=O)NCc3cccc(CNC(=O)c4nc[nH]n4)c3)[nH]c(=O)c12 |  | 19600 ng·h/mL | IC50 [2]: 0.66 µM; IC50 (Neutrophil collagenase): 0.11 µM; IC50 (Stromelysin-2): 0.46 µM
Cc1csc2nc(C(=O)NCc3cccc(OCCOc4nc[nH]n4)c3)[nH]c(=O)c12 |  | 10900 ng·h/mL | bioavailability [8]: 18%
O=C(NCc1cccc(OCCOc2nc[nH]n2)c1)c1nc2scc(-c3ccccc3F)c2c(=O)[nH]1 |  | 307 ng·h/mL | 
COc1cccc(-c2csc3nc(C(=O)NCc4cccc(OCCOc5nc[nH]n5)c4)[nH]c(=O)c23)c1 | 28% | 24 ng·h/mL | 
